Data published in article PMC12096669, “Structural isomerisation affects the antitubercular activity of adamantyl-isoxyl adducts” (Journal of Enzyme Inhibition and Medicinal Chemistry, 2025).
≈ marks a conversion by molar mass, not a printed value. Like-named read-outs stand apart in the source and are kept apart here.

Key:
[1] = test system: M. bovis BCG; details: library of 52,000 compounds; cited from earlier work
[2] = test system: S. aureus NCTC 2981; assay: Non-mycobacterial REMA assay; format: cell-based; details: Staphylococcus aureus, NCTC2981, read-out: Minimum inhibitory concentration 95%
[3] = test system: AC10 hybrid adult ventricular cardiomyocytes; assay: MTS cytotoxicity assay, cardiomyocytes; format: cell-based; details: Homo sapiens, AC10 cardiac, 96 h, read-out: MTS percentage survival @ 100 µM
[4] = test system: E. faecalis NCTC 775; assay: Non-mycobacterial REMA assay; format: cell-based; details: Enterococcus faecalis, NCTC775, read-out: Minimum inhibitory concentration 95%
[5] = test system: S. agalactiae NCTC 8181; assay: Non-mycobacterial REMA assay; format: cell-based; details: Streptococcus agalactiae, NCTC8181, read-out: Minimum inhibitory concentration 95%
[6] = test system: B. cereus NCTC 7464; assay: Non-mycobacterial REMA assay; format: cell-based; details: Bacillus cereus, NCTC7464, read-out: Minimum inhibitory concentration 95%
[7] = test system: S. pyogenes NCTC 8198; assay: Non-mycobacterial REMA assay; format: cell-based; details: Streptococcus pyogenes, NCTC8198, read-out: Minimum inhibitory concentration 95%
[8] = test system: RAW264.7 murine macrophage cells; assay: cells; format: cell-based; details: for viability at 100 µM / IC50: Mus musculus; for viability at 100 µM: RAW264.7, 96 h, RAW264.7 macrophage, 96 h, read-out: MTS percentage survival @ 100 µM; for IC50: RAW264.7 macrophages, 0 to 100 µM, read-out: IC50 (cell viability, MTS assay)
[9] = test system: K. pneumoniae NCTC 9633; assay: Non-mycobacterial REMA assay; format: cell-based; details: Klebsiella pneumoniae, NCTC9633, read-out: Minimum inhibitory concentration 95%
[10] = test system: E. cloacae NCTC 10005; assay: Non-mycobacterial REMA assay; format: cell-based; details: Enterobacter cloacae, NCTC10005, read-out: Minimum inhibitory concentration 95%
[11] = test system: A. baumannii NCTC 12156; assay: Non-mycobacterial REMA assay; format: cell-based; details: Acinetobacter baumannii, NCTC12156, read-out: Minimum inhibitory concentration 95%
[12] = test system: S. enterica NCTC 6754; assay: Non-mycobacterial REMA assay; format: cell-based; details: Salmonella enterica, NCTC6754, read-out: Minimum inhibitory concentration 95%
Experimental: (§1) Bacterial minimum inhibition concentrations (MIC) were determined using the Resazurin Microtiter Assay (REMA) method according to Palomino et al.[28] Stock solutions of the tested compounds were prepared in sterile dimethyl sulfoxide (DMSO), then diluted in 7H9OPALPen^1Cyc^10(Kan^25) to obtain a final drug concentration range of 32–0.032 μg/mL. A suspension of the test Mycobacterium was cultured in 7H9OPALPen^1Cyc^10(Kan^25) containing 0.05% v/v Tween^80 for one week at 37 °C, 5% CO2. The bacterial suspension was adjusted to 0.5 McFarland and diluted in 7H9OPALPen^1Cyc^10(Kan^25) 1:25. 100 μL of the inoculum was added to each well of a 96-well microplate together with 100 μL of the compound titration. The plate was incubated at 37 °C, 5% CO2. After 5 days, 10.5 μL 0.1% (w/v) sterile resazurin (solubilised in sterile PBS containing 0.02% v/v Tween^80) was added. Reduced resazurin was detected using fluorescence (Ex/Em 530/590 nm) in a FLUOstar Optima, BMG Labtech. All titre measurements were plotted in SigmaPlot™ and 4-parameter logistic (4PL) model regressions conducted. The relative MIC95 of each curve was calculated and averaged (Table 1). Testing was performed in duplicate with two independent biological repeats. […] Though, for these cultures, dilutions were performed at 1:125 prior to inoculation of the plate and incubation for 4 h (Supplementary Table 3). Known antitubercular agents used in this study were rifampicin (RIF), isoniazid (INH), ISO, EMB, ethionamide (ETH), linezolid (LZD), delamanid (DEL) and moxifloxacin (MOX).

[13] = test system: E. coli K12; assay: Non-mycobacterial REMA assay; format: cell-based; details: Escherichia coli, read-out: Minimum inhibitory concentration 95%
Experimental: as §1

[14] = test system: HepG2 human liver cancer cell line; assay: MTS cytotoxicity assay, liver cells; format: cell-based; details: 96 h, read-out: MTS percentage survival @ 100 µM
[15] = test system: E. faecium NCTC 7171; assay: Non-mycobacterial REMA assay; format: cell-based; details: Enterococcus faecium, NCTC7171, read-out: Minimum inhibitory concentration 95%
[16] = test system: Mtb mc^27902 pMV261; assay: microbe, parasite or virus in culture; format: cell-based; details: Mycobacterium tuberculosis
[17] = test system: P. aeruginosa DSM 19880; assay: Non-mycobacterial REMA assay; format: cell-based; details: Pseudomonas aeruginosa, DSM19880, read-out: Minimum inhibitory concentration 95%
[18] = test system: Mtb mc^27902 pMV261; format: cell-based, Mycobacterium tuberculosis
[19] = test system: Mtb mc^27902 pMV261; assay: Synergy (two-drug checkerboard style) assay; format: cell-based, Mycobacterium tuberculosis; details: in combination with RIF
[20] = test system: Mtb mc^27902 pMV261; format: cell-based, Mycobacterium tuberculosis; details: in the presence of glucose; 37 °C, 30 min
[21] = mc^27902 pMV261, REMA, read-out: Mtb MIC95
[22] = values used for the SI, in brackets, […], read-out: MIC95
[23] = values used for the SI, […], read-out: MIC95

Row | Compound | MIC [2] | viability at 100 µM [3] | MIC [4] | MIC [5] | MIC [6] | MIC [7] | viability at 100 µM [8] | MIC [9] | MIC [10] | MIC [11] | MIC [12] | MIC [13] | viability at 100 µM [14] | MIC [15] | MIC [16, 21] | MIC [17] | IC50 [8] | MIC [16, 22] | MIC [16, 23] | also measured
1 | O=C(N/N=C/c1cccc(F)c1)C12CC3CC(CC(C3)C1)C2 [adamantyl-hydrazone] |  |  |  |  |  |  |  |  |  |  |  |  |  |  |  |  |  |  |  | MIC [1]: < 2 µg/mL
2 | NNC(=O)c1ccncc1 [INH, isoniazid] | > 32 µg/mL | 92.6 ± 1.2% | > 32 µg/mL | > 32 µg/mL | > 32 µg/mL | > 32 µg/mL | 96.3 ± 2% | > 32 µg/mL | > 32 µg/mL | > 32 µg/mL | > 32 µg/mL | > 32 µg/mL | 97 ± 3.8% | > 32 µg/mL | 0.04 µg/mL | > 32 µg/mL |  |  |  | 
3 | CC(C)=CCC/C(C)=C/CNCCNC1C2CC3CC(C2)CC1C3 (stereo not drawn) [SQ109, N-Adamantan-2-yl-N’-((E)-3,7-dimethylocta-2,6-dienyl)ethane-1,2-diamine] | 16.9 µg/mL (≈ 51 µM) | 40.2 ± 2.3% | 21.1 µg/mL (≈ 63.8 µM) | > 32 µg/mL | > 32 µg/mL | > 32 µg/mL | 61.1 ± 2.9% | > 32 µg/mL | 16.8 µg/mL (≈ 50.9 µM) | 20.7 µg/mL (≈ 62.7 µM) | > 32 µg/mL | 17.4 µg/mL (≈ 52.5 µM) | 15.1 ± 4.1% | 20.1 µg/mL (≈ 60.8 µM) | 0.33 µg/mL | > 32 µg/mL | > 100 µM | 0.12 µg/mL | 0.36 µM | selectivity index (SI) ([8]; from RAW264.7 IC50 and Mtb MIC95): > 100
4 | CC(=O)NC[C@H]1CN(c2ccc(N3CCOCC3)c(F)c2)C(=O)O1 [LZD, linezolid] | 23.7 µg/mL (≈ 70.3 µM) | 103 ± 1.8% | 0.921 µg/mL (≈ 2.73 µM) | 2.1 µg/mL (≈ 6.23 µM) | 1.75 µg/mL (≈ 5.2 µM) | 0.543 µg/mL (≈ 1.61 µM) | 38.3% | > 32 µg/mL | > 32 µg/mL | 31.1 µg/mL (≈ 92.1 µM) | > 32 µg/mL | > 32 µg/mL | 105 ± 5.1% | 0.158 µg/mL (≈ 0.468 µM) | 0.91 µg/mL | > 32 µg/mL | 16.2 µM | 0.55 µg/mL | 1.63 µM | 
5 | CC(C)CCOc1ccc(NC(=S)NC2C3CC4CC(C3)CC2C4)cc1 (stereo not drawn) [Ad-2-ISO, 1-((1r,3r,5r,7r)-adamantan-2-yl)-3–(4-(isopentyloxy)phenyl)thiourea] | > 32 µg/mL | 51.1 ± 17.7% | > 32 µg/mL | > 32 µg/mL | > 32 µg/mL | > 32 µg/mL | 22.5 ± 0.9% | > 32 µg/mL | > 32 µg/mL | > 32 µg/mL | > 32 µg/mL | > 32 µg/mL | 13.4 ± 5.1% | > 32 µg/mL | 2.88 µg/mL | > 32 µg/mL | 95.3 µM |  |  | TDM and glucose monomycolate levels (TLC) [18]: decrease in TDM and glucose monomycolate; effect on mycolic acid biosynthesis (FAMEs/MAMEs, TLC/autoradiography) [18]: more significant reduction in radiolabel incorporation; TMM levels (TLC) ([18]; at the highest concentrations, […]): slight increase in the TMM levels; FICI [19]: 0.52; efflux of EtBr [20]: significantly increased the overall efflux of EtBr
